We go through 3 molecules from US6762045B2, “Membrane derived caspase-3, compositions comprising the same and methods of use therefor” (Idun Pharmaceuticals, Inc., priority 2000, dated 2004).

Where two headings read alike, the source gives them in different places.

Assay [1] deals with cortical cell HM (caspase-1 treated) derived caspase. Kind of assay: Inhibition of DEVD-amc cleavage, caspase-1 activated E15 brain cortical cell heavy membranes. It is filed as biochemical, mouse. How it is done:
(§1) Caspase activity was measured by mixing 50 μl of an enzyme-containing fraction and 200 μl of 25 μM DEVD-amc (Asp-Glu-Val-Asp-aminomethylcoumarin; SEQ ID NO:6) substrate in ICE buffer (20 mM HEPES, 1 mM EDTA, 0.1% CHAPS, 10% sucrose, 5 mM DTT, pH 7.5) in duplicate Cytoplate wells. Product formation was monitored by the increase in fluorescence (ex=360 nm, em=460 nm) over 1-2 hours at 30° C. using the CytoFluor 4000 plate reader (Perseptive Biosystems, Framingham, Mass.). For kinetic studies, the substrate concentration was varied in the range 1-200 μM. KM values were calculated from these measurements using the equation: […]
(§2) where ΔFL/Δt is the observed initial rate of fluorescence change at substrate concentration [S] and (ΔFL/Δt)MAX is the initial rate of fluorescence change at saturating substrate concentrations. […] Inhibitor IC50 values were determined using the equation: […]
(§3) ΔFL/Δt is the observed initial rate of fluorescence change at inhibitor concentration [I] and (ΔFL/Δt)o is the initial rate fluorescence change for the uninhibited enzyme. […]
(§4) To determine if the presence of membrane derived caspase activity is a general property of mammalian cells, the DEVD-amc cleavage activity in heavy membranes from two other cell sources was measured: mouse E 15 primary brain cortical cells and the mouse dopaminergic MN9D cell line (Choi et al., […] 89:8943-8947, 1992). […]

In assay [2] the target is T1, 697-neo HM (caspase-1 treated) derived caspase (Homo sapiens, UniProt P42574).
T1 construct: the heavy membrane caspase is comprised of a large 19-kDa subunit and a smaller 12-kDa subunit; endogenous in cells; host or cells: 697-neo / 697-Bcl-2 human lymphoblastoid cells; supernatant assayed
T1 sequence (P42574 14-175): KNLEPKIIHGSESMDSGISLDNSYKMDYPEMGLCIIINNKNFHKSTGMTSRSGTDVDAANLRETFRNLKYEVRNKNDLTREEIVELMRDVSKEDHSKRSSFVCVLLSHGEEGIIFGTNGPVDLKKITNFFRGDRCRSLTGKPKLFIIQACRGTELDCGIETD
T1 sequence (P42574 176-277): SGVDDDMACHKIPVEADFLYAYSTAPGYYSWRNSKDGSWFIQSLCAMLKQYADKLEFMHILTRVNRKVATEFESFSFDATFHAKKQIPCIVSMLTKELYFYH
Kind of assay: Inhibition of DEVD-amc cleavage, caspase-1 activated 697-neo heavy membranes. It is filed as biochemical. As for the experimental part:
(§5) SEQ ID NO:6) substrate in ICE buffer (20 mM HEPES, 1 mM EDTA, 0.1% CHAPS, 10% sucrose, 5 mM DTT, pH 7.5) in duplicate Cytoplate wells. […] KM values were calculated from these measurements using the equation: where ΔFL/Δt is the observed initial rate of fluorescence change at substrate concentration [S] and (ΔFL/Δt)MAX is the initial rate of fluorescence change at saturating substrate concentrations. For inhibition studies, 50 μl of the enzyme was pretreated with 150 μl inhibitor for 30 min at room temperature prior to the addition of 50 μl of 50 μM substrate solution.

The next assay deals with T2, caspase-1 (Mus musculus, UniProt P29452).
T2 construct: contains the p30 caspase-1 cDNA inserted into the Nde I/BamH I sites of the pET3a expression vector; FLAG; made in house; host or cells: E. coli BL21 (DE3) pLysS, pET3a; used as clarified bacterial lysate
T2 sequence (P29452 119-296 limits assumed): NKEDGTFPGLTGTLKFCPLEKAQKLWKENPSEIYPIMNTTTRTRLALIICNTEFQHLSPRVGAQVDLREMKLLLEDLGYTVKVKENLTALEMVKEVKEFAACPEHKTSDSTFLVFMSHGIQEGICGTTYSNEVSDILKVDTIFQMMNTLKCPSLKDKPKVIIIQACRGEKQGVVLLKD
T2 sequence (P29452 315-402 limits assumed): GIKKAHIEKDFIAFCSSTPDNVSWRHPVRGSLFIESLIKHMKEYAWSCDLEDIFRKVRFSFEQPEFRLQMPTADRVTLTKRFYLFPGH
Description: Caspase-1 inhibition. It is filed as biochemical. As to conditions: 300 nM.

Assay [3] concerns the target T3, 697 Bcl-2 HM (caspase-1 treated) derived caspase (Homo sapiens, UniProt P42574).
T3 construct: the heavy membrane caspase is comprised of a large 19-kDa subunit and a smaller 12-kDa subunit; endogenous in cells; host or cells: 697-neo / 697-Bcl-2 human lymphoblastoid cells; supernatant assayed
T3 sequence (P42574 14-175): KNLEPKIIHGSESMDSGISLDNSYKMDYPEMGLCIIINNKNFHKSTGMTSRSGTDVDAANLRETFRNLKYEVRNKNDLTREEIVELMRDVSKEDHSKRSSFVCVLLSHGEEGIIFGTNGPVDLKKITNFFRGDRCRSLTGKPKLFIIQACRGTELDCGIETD
T3 sequence (P42574 176-277): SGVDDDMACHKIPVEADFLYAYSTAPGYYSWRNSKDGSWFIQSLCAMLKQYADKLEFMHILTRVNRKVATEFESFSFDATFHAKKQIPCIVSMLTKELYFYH
Description: Inhibition of DEVD-amc cleavage, caspase-1 activated 697-Bcl-2 heavy membranes. It is filed as biochemical. As for the experimental part:
as §5

Assay [4] addresses T4, recombinant human caspase-3 (r-caspase-3 (His)6) (Homo sapiens, UniProt P42574).
T4 construct: The large subunit of purified bacterially expressed caspase-3 migrates as a 17-kDa band; purified fully-processed recombinant human caspase-3; His6 (C); made in house; host or cells: E. coli BL21 (DE3), pET21b; Ni2+ chelating column
T4 sequence (P42574 29-175 limits assumed): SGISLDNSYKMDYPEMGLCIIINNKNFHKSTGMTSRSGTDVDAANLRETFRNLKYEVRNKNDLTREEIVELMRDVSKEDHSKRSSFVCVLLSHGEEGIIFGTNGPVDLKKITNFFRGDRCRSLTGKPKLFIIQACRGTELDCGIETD
T4 sequence (P42574 176-277 limits assumed): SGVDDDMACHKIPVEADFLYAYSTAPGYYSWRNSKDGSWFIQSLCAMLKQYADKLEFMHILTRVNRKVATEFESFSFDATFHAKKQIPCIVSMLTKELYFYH
Description: DEVD-amc cleavage by recombinant caspase-3. It is filed as biochemical. As for the experimental part:
(§6) For inhibition studies, 50 μl of the enzyme was pretreated with 150 μl inhibitor for 30 min at room temperature prior to the addition of 50 μl of 50 μM substrate solution.

Assay [5] addresses T5, caspase-1 activation of membrane derived procaspase-3 (Mus musculus, UniProt P29452).
T5 construct: contains the p30 caspase-1 cDNA inserted into the Nde I/BamH I sites of the pET3a expression vector; FLAG; made in house; host or cells: caspase-1: E. coli BL21 (DE3) pLysS lysate; procaspase-3: endogenous in 697 cell heavy membranes
T5 sequence (P29452 119-296 limits assumed): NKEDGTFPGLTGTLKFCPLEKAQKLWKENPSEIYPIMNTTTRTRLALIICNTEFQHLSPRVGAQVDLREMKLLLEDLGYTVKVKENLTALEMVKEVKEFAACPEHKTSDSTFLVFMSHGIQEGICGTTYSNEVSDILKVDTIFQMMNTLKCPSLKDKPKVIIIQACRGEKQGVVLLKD
T5 sequence (P29452 315-402 limits assumed): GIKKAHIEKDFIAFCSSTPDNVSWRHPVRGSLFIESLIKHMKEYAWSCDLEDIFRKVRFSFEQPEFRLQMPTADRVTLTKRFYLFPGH
Description: Caspase-1 mediated activation of membrane procaspase-3 in 697 heavy membranes. Type of assay: biochemical, human.
Description: Heavy membrane samples were diluted to 1 mg/ml in hypotonic buffer or in 0.25 M sucrose, 10 mM MOPS, 2 mM EDTA, pH 7.4 (Mancini, et al., 1998) containing 5 mM DTT with or without 1% NP-40. […] After the activation period, the heavy membrane pellet was removed from the sample by centrifugation for 10 min at 14,000×g at 4° C. […] In some experiments, caspase-1 activity was rapidly quenched at specific time points by the addition of one-tenth volume 3 μM YVADaldehyde (Bachem Bioscience, King of Prussia, Pa.) prior to centrifugation. To examine the time course of spontaneous activation of caspase activity from membranes, 50 μi of heavy membrane slurry containing 50-100 μg total protein was mixed with 200 μl hypotonic buffer containing 25 μM DEVD-amc substrate and 6 mM DTT in 96 well Cytofluor plates and fluorescence was measured over time. At selected time points, aliquots were removed from some wells, centrifuged for 10 min at 14,000×g to remove the heavy membranes and the supernatant was added back into the 96 well plate to measure the soluble DEVD-amc cleavage activity. […]
In this experiment, heavy membrane fractions (containing 50 μg total protein) from 697-Bcl-2 and 697-neo cells were re-suspended and treated with murine caspase-1 for one hour at room temperature. Following centrifugation, the DEVD-amc cleavage activity of the resulting supernatant was measured.

Assay [6] deals with MN9D HM (caspase-1 treated) derived caspase. Kind of assay: Inhibition of DEVD-amc cleavage, caspase-1 activated MN9D heavy membranes. Type of assay: biochemical, mouse. How it is done: as §1, §2, §3, §4
The target in assay [7] is T6, purified membrane derived caspase-3 (Homo sapiens, UniProt P42574).
T6 construct: the heavy membrane caspase is comprised of a large 19-kDa subunit and a smaller 12-kDa subunit; endogenous in cells; host or cells: 697 human lymphoblastoid cells
T6 sequence (P42574 14-175): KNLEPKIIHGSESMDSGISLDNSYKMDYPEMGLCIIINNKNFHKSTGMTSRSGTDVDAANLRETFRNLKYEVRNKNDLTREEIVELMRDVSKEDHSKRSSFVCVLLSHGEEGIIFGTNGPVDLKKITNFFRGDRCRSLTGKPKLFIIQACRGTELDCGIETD
T6 sequence (P42574 176-277): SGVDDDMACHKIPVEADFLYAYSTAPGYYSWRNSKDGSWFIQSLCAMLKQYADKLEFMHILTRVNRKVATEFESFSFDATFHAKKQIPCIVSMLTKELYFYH
Kind of assay: DEVD-AMC cleavage by affinity purified membrane derived caspase-3 from 697 cells. It is filed as biochemical. How it is done:
as §6

As for `CC(=O)N[C@@H](Cc1ccc(O)cc1)C(=O)N[C@H](C(=O)N[C@@H](C)C(=O)N[C@H](C=O)CC(=O)O)C(C)C` [YVAD-ald], the IC50 was more than 10 µM in assay [1]; more than 10 µM in assay [2] (inhibition of DEVD-amc cleavage); more than 10 µM in assay [3]; more than 10 µM in assay [4] (inhibition of DEVD-amc cleavage, read-out: IC50 r-caspase-3 (His)6); more than 10 µM in assay [4] (read-out: IC50 caspase-3); more than 10 µM in assay [6]. For the same molecule, the “Inhibition of DEVD-AMC hydrolysis activity of caspase-1 activated membrane caspase” value in assay [2] (300 nM) is on record as “not inhibited”. Moreover, the “Inhibition of caspase-1” value at caspase-1 is on record as “completely inhibits”. Further, in assay [5] (200 nM), the “Block of caspase-1 activation of membrane caspase” value is “completely blocked”. Besides, the “Block of activation of DEVD-AMC hydrolytic activity and generation of 20-kDa large subunit” value in assay [5] (caspase-1 pretreated with 300 nM) was “blocks”.

For `CC(C)[C@H](NC(=O)[C@H](CCC(=O)O)NC(=O)OCc1ccccc1)C(=O)N[C@H](C=O)CC(=O)O` [ZEVDald], the half-inhibitory concentration (IC50) in assay [7] (inhibition of DEVD-AMC cleavage, Table III, read-out: IC50 Membrane (purified membrane derived caspase-3)) stood at 32 nM.

B1: Baculovirus p35: early p35 protein from Autographa californica nuclear polyhedrosis virus, recombinant (protein)
chain: MCVIFPVEIDVSQTIIRDCQVDKQTRELVYINKIMNTQLTKPVLMMFNISGPIRSVTRKNNNLRDRIKSKVDEQFDQLERDYSDQMDGFHDSIKYFKDEHYSVSCQNGSVLKSKFAKILKSHDYTDKKSIEAYEKYCLPKLVDERNDYYVAVCVLKPGFENGSNQVLSFEYNPIGNKVIVPFAHEINDTGLYEYDVVAYVDSVQFDGEQFEEFVQSLILPSSFKNSEKVLYYNEASKNKSMIYKALEFTTESSWGKSEKYNWKIFCNGFIYDKKSKVLYVKLHNVTSALNKNVILNTIK
For B1, the 50% inhibitory concentration (IC50) in assay [7] (read-out: IC50 heavy membrane caspase from 697 cells) was 0.074 nM; in assay [4] (inhibition of DEVD-AMC cleavage, Table III, read-out: IC50 Recombinant (caspase-3)), 4.1e-05 µM.
